Experimental data reported in patent publication US20060073504A1, “Treatment of pain by inhibition of caspase signaling” (The Regents of the University of California, priority 2004, published 2006).
“Also recorded” adds a separate entry of the source. Where a name gives a salt, the structure may show the parent alone. Read-outs that look alike come from different tables or passages of the source. * marks the point of attachment. Cbz = O=C(OCc1ccccc1)*; CH2F = FC*

Key:
[1] = system: mechanical hyperalgesia induced by vincristine (VCR); test: Vincristine-induced mechanical hyperalgesia, paw-withdrawal threshold; format: in vivo, rat; conditions: inhibitor 5 μg i.d. hind paw, day 5 after VCR 200 μg/kg i.v., read 30 min after inhibitor, p<0.05
Method: (§1) Experiments were performed on 220-260-g male Sprague-Dawley rats (Charles River, Fremont, Calif., USA). Rats were housed in groups of 2 under a 12-h light-dark cycle. Food and water were available ad libitum. Experiments were carried out in accordance with NIH regulations for the care and use of animals in research, and under approval of the Institutional Animal Care and Use Committee of the University of California, San Francisco.
(§2) The nociceptive mechanical flexion reflex was quantified with an Ugo Basile Analgesymeter® (Stoelting, Chicago, Ill.), which applies a linearly increasing mechanical force to the dorsum of the rat's hind paw. Mechanical paw-withdrawal thresholds were determined in control (saline treated) and test agent treated rats. Four readings were taken at 5-min intervals and the mean of the last three readings were used to define the baseline paw-withdrawal threshold (Aley and Levine, 1999; Aley et al., 2001). The time at which the readings were taken was based on the time course of each test agent (described in results).
(§3) Algesic agents employed in this study were: vincristine sulfate (VCR), 2′,3′-dideoxycytidine (ddC), streptozotocin sulfate (STZ), tumor necrosis factor-α (TNFα) prostaglandin E2 (PGE2), epinephrine (Epi) (Sigma, St. Louis, Mo.) and N-Acetyl Sphingosine (C2-Ceramide obtained from Upstate USA, Inc, Lake Placid, N.Y.). Doses of the algesic agents were, VCR (200 μg/kg), ddC (50 mg/kg), STZ (50 mg/kg), PGE2 (100 ng/paw) and Epi (100 ng/paw). A single i.v. injection of VCR (200 μg/kg) produced significant mechanical hyperalgesia (>30 % reduction in paw-withdrawal threshold). This effect reached maximum on day 5 following the drug administration and was persistent for more then 15 days (Joseph, 2003 #5). STZ (50 mg/kg, i.v.×1), induced diabetes in rats, as indicated by with a blood glucose level >300 mg/dL, and a nociceptive threshold reduction (>30%). This effect reached maximum on day 3 following administration of the neuropathy inducing drug and was persistent for over 15 days (Joseph, 2003 #4).
(§4) TNFα, C2-Ceramide, PGE2, Epi, and all the inhibitors (see Table I) were administered intradermally (i.d.) on the dorsal surface of the hind paw in a volume of 2.5-5.0 μl, via a 30-gauge hypodermic needle. In co-injection experiments, agents were separated by very small air pockets, in one syringe, so that they could be administered with a single cutaneous needle penetration. As a control, all inhibitors were studied for independent effects on baseline nociceptive threshold. Inhibitors were either co-injected (with TNFα, C2-Ceramide, PGE2, and Epi) or administered on day five following the administration of VCR, ddC and STZ. Drugs were either dissolved in saline (VCR, ddC, STZ, TNF-α, PGE2, Epi) or in 10% DMSO (C2-Ceramide and inhibitors).
(§5) Group data are presented as % reduction in nociceptive threshold (mean+/±SEM) and comparisons between groups performed using Student's t-test (paired or unpaired, as appropriate). A probability of p<0.05 was considered statistically significant.
FIG. 2 depicts the effect of inhibitors of caspases, administered in the hind paw of the rat, on mechanical hyperalgesia induced by the cancer chemotherapy drug Vincristine (VCR). The effect of inhibitors of caspase 1, 2, 3, 8, 9, the non-selective broad-spectrum caspase inhibitor (NS) and the negative control for the non-selective broad-spectrum caspase inhibitor [NS (Con)] on the nociceptive paw-withdrawal thresholds were evaluated. Paw-withdrawal thresholds were measured on the 5th day after injection of VCR and 30 min after the administration of the inhibitors. N=8/group, *=p<0.05, with respect to the value prior to injection of the inhibitor.

[2] = system: mechanical hyperalgesia induced by 2′,3′-dideoxycytidine (ddC); test: ddC-induced mechanical hyperalgesia, paw-withdrawal threshold (Ugo Basile Analgesymeter); format: in vivo, rat; conditions: inhibitor 5 μg i.d. hind paw, day 5 after ddC 50 mg/kg i.v., read 30 min after inhibitor, p<0.05
Method: as §1, §2, §3, §4, §5
FIG. 1 depicts the effect of inhibitors of caspases administered in the hind paw of the rat, on mechanical hyperalgesia induced by the AIDS therapy drug 2′,3′-dideoxycytidine (ddC). The effect of inhibitors of caspase 1 (BACMK), 2 (Z-VDAD-FMK), 3 (Ac-DMQD-CHO), 8 (IETD-CHO), 9 (Z-LEHD-FMK.TFA), the non-selective broad-spectrum caspase inhibitor (NS) Z-VAD-FMK and the negative control for the non-selective broad-spectrum caspase inhibitor Z-FA-FMK [NS (Con)] on the nociceptive paw-withdrawal thresholds of rats were evaluated. Paw-withdrawal thresholds were measured on the 5th day after injection of ddC and 30 min after the administration of inhibitors. N=8/group, *=p<0.05, with respect to mechanical nociceptive threshold prior to injection of the inhibitor.

[3] = system: mechanical nociceptive threshold; conditions: cited from earlier work
[4] = system: mechanical hyperalgesia induced by TNF-α; test: TNFα-induced mechanical hyperalgesia, inhibitors co-injected; format: in vivo, rat; conditions: read at 30 min
Method: as §1, §2
Inhibitors of caspases and neutral sphingomyelinase are described in Table I, which is repeated for convenience. The doses of TNFα (100 ng) and C2-Ceramide (10 μg) were based on dose response experiments performed as part of this study. VCR, STZ, and ddC were administered intravenously (i.v.) in a volume of 1 ml/kg, followed by 0.5 ml saline. Control rats received equal volume of saline. […]
FIG. 4 depicts the effect of inhibitors of caspases and sphingomyelinase on mechanical hyperalgesia induced by tumor necrosis factor alpha (TNF-α). The effect of inhibitors of caspase 1, 2, 3, 8, 9, the non-selective broad-spectrum caspase inhibitor (NS), the negative control for the non-selective broad-spectrum caspase inhibitor [NS (Con)], and the neutral sphingomyelinase inhibitor (GW4869) on the nociceptive paw-withdrawal thresholds of rats was evaluated. The inhibitors were co-injected with TNF-α and the paw-withdrawal thresholds measured 30 min after the drug administration. […]

[5] = system: mechanical hyperalgesia induced by ceramide; test: C2-ceramide-induced mechanical hyperalgesia, inhibitors co-injected; format: in vivo, rat; conditions: inhibitor 5 μg co-injected i.d. with C2-ceramide 10 μg, read at 1 hr; p<0.05
Method: as §1, §2
Inhibitors of caspases and neutral sphingomyelinase are described in Table I, which is repeated for convenience. […]
FIG. 6 depicts the effect of inhibitors of caspases on mechanical hyperalgesia induced by ceramide. […] The inhibitors were co-injected with ceramide and paw-withdrawal thresholds measured 1 hr after the drug administration. […]

[6] = system: mechanical nociceptive threshold; test: Effect of algesic agents on mechanical nociceptive (paw-withdrawal) threshold; format: in vivo, rat; conditions: for effect on mechanical nociceptive threshold, dose response: intradermal injection, TNFα 1 ng-1 μg, C2-ceramide 1 μg-20 μg; for reduction in nociceptive threshold: 100 ng/paw i.d.
Method: as §1, §2
Algesic agents employed in this study were: vincristine sulfate (VCR), 2′,3′-dideoxycytidine (ddC), streptozotocin sulfate (STZ), tumor necrosis factor-α (TNFα) prostaglandin E2 (PGE2), epinephrine (Epi) (Sigma, St. Louis, Mo.) and N-Acetyl Sphingosine (C2-Ceramide obtained from Upstate USA, Inc, Lake Placid, N.Y.). Doses of the algesic agents were, VCR (200 μg/kg), ddC (50 mg/kg), STZ (50 mg/kg), PGE2 (100 ng/paw) and Epi (100 ng/paw).
Inhibitors of caspases and neutral sphingomyelinase are described in Table I, which is repeated for convenience. The doses of TNFα (100 ng) and C2-Ceramide (10 μg) were based on dose response experiments performed as part of this study. VCR, STZ, and ddC were administered intravenously (i.v.) in a volume of 1 ml/kg, followed by 0.5 ml saline. Control rats received equal volume of saline.
as §4
FIG. 3 depicts: A. Dose response (1 ng-1 μg) curve for the effect of TNF-α on mechanical nociceptive threshold, and B. Onset and time course of mechanical hyperalgesia induced by 100 ng of TNF-α. N=6/group.
FIG. 5 depicts the dose response (1-20 μg) curve for the effect of ceramide on the mechanical nociceptive threshold. N=6/group.

[7] = STZ 50 mg/kg i.v. ×1; cited from earlier work
[8] = listed as inhibitor of caspase 3
[9] = single i.v. injection: VCR 200 μg/kg, STZ 50 mg/kg

Q: With Ac-Asp-Met-Gin-Asp-CHO [Ac-DMQD-CHO] as the compound, how does the “effect on vincristine-induced mechanical hyperalgesia” value [1, 8] read?
A: significantly reversed mechanical hyperalgesia; also recorded: only moderately attenuated

Q: What about the “effect on ddC-induced mechanical hyperalgesia” value [2, 8] of the same compound?
A: significantly reversed mechanical hyperalgesia; also recorded: markedly attenuating ddC hyperalgesia

Q: With `CC[C@]1(O)C[C@H]2CN(CCc3c([nH]c4ccccc34)[C@@](C(=O)OC)(c3cc4c(cc3OC)N(C=O)[C@H]3[C@@](O)(C(=O)OC)[C@H](OC(C)=O)[C@]5(CC)C=CCN6CC[C@]43[C@@H]65)C2)C1` [VCR, vincristine sulfate] as the compound, how does the “day of maximum hyperalgesic effect after drug administration” value [3, 9] read?
A: 5 days

Q: Which results are given for Z-Phe-Ala-CH2F [Z-FA-FMK]?
A: effect on TNFα-induced hyperalgesia ([4]; inhibitor 5 μg co-injected i.d. with TNFα 100 ng, p<0.05): not; effect on C2-ceramide-induced hyperalgesia [5]: not

Q: Which results are given for `Nc1ccn([C@H]2CC[C@@H](CO)O2)c(=O)n1` [ddC, 2′,3′-dideoxycytidine]?
A: reduction in nociceptive threshold ([3]; single dose ddC 50 mg/kg i.v., from day 1): significant reduction in nociceptive threshold; persistence of hyperalgesia ([3]; single i.v. injection: VCR 200 μg/kg, STZ 50 mg/kg, ddC 50 mg/kg): over 20 days

Q: With `CCCCCCCCCCCCC/C=C/[C@@H](O)[C@H](CO)NC(C)=O` [C2-ceramide, N-Acetyl Sphingosine] as the compound, how does the “effect on mechanical nociceptive threshold, dose response” value [6] read?
A: dose-dependent hyperalgesia

Q: With TNFα as the compound, how does the “latency to onset of hyperalgesia” value ([6]; TNFα 100 ng i.d.) read?
A: approximately 5 minutes

Q: And the “time course of hyperalgesia” value ([6]; TNFα 100 ng i.d., at 3 hours)?
A: not attenuated at 3 hours

Q: And the “effect on mechanical nociceptive threshold, dose response” value [6]?
A: dose-dependent (1 ng-1 μg) decrease in mechanical nociceptive threshold

Q: For `CN(N=O)C(=O)N[C@@H]1[C@@H](O)[C@H](O)[C@@H](CO)O[C@@H]1O` [STZ, streptozotocin sulfate], which “day of maximum hyperalgesic effect after drug administration” value [3, 9] is on record?
A: 3 days

Q: And the blood glucose level [7]?
A: > 300 mg/dL

Q: For `O=C(/C=C/c1ccc(/C=C/C(=O)Nc2ccc(C3=NCCN3)cc2)cc1)Nc1ccc(C2=NCCN2)cc1` [GW4869], which “effect on TNFα-induced hyperalgesia” value ([4]; sphingomyelinase inhibitor 1 μg co-injected i.d. with TNFα 100 ng) is on record?
A: markedly attenuated

Q: Which “reduction in nociceptive threshold” value [6] does the source give for `CCCCC[C@H](O)/C=C/[C@H]1[C@H](O)CC(=O)[C@@H]1C/C=C\CCCC(=O)O` [PGE2, prostaglandin E2] here?
A: significant reduction in nociceptive threshold

Q: With “Z-Leu-Glu(OMe)-His-Asp-(OMe)FMK [Z-LEHD-FMK.TFA]” as the compound, how does the “effect on vincristine-induced mechanical hyperalgesia” value [1] read?
A: significantly attenuated hyperalgesia

Q: What about the “effect on ddC-induced mechanical hyperalgesia” value [2] of the same compound?
A: significantly attenuated hyperalgesia

Q: What does the source list for `CC(C)(C)OC(=O)N[C@@H](CC(=O)OCc1ccccc1)C(=O)CCl` [BACMK, Boc-Asp(Obzl)-CMK]?
A: effect on vincristine-induced mechanical hyperalgesia [1]: significantly attenuated hyperalgesia; effect on ddC-induced mechanical hyperalgesia [2]: significantly attenuated hyperalgesia

Q: For `CNC[C@H](O)c1ccc(O)c(O)c1` [Epi, epinephrine], which “reduction in nociceptive threshold” value [6] is on record?
A: significant reduction in nociceptive threshold

Q: With IETD-CHO as the compound, how does the “effect on vincristine-induced mechanical hyperalgesia” value [1] read?
A: significantly attenuated hyperalgesia

Q: And the “effect on ddC-induced mechanical hyperalgesia” value [2]?
A: significantly attenuated hyperalgesia

Q: What does the source list for Cbz-VD(OMe)VAD(OMe)-CH2F [Z-VDAD-FMK]?
A: effect on vincristine-induced mechanical hyperalgesia [1]: significantly attenuated hyperalgesia; effect on ddC-induced mechanical hyperalgesia [2]: significantly attenuated hyperalgesia
